Each compound was assayed on BALB/c mice (assay: cutaneous hypersensitivity test (CH test), oxazolone-induced ear swelling). Conditions: Mus musculus, ip; intraperitoneal, at sensitisation and every 24 hours for a further 7 days; lowest dose used giving 20% or greater reduction in ear swelling (p <0.05) in two out of three CH tests; read-out: Minimum Effective Dose.
Assay type: in vivo
Description: This test was carried out in the following way.
Female BALB/c mice, weight range 16-24 g, were used in groups of eight. The abdomen of each mouse was shaved and 20 µl of a solution of a sensitising agent, 5% w/v 4-ethoxymethylene-2-phenyl-2-oxazolin-5-one (oxazolone) in acetone:ethanol (1:1 by volume), was applied to the shaved area. Immediately after sensitisation, the test compound in one of the dosages listed below was injected intraperitoneally as a suspension in 1.5% v/v sorbitan esters, under the trade name Tween 80, in sterile water (100µl). 100 µl of the same suspension was injected likewise every 24 hours for a further 7 days. The dosages used were selected from the following values: 50, 30, 10, 3, 1, 0.3, 0.1, 0.03 or 0.01 mg/kg.
Two groups of eight BALB/c mice were used as a control simultaneously with each test in a similar manner to that described above except that no test compound was included in the daily injections.
On the seventh day after sensitisation, 10 µl of a solution of 1% w/v oxazolone in acetone: olive oil (either 1:1 or 3:1 by volume) was applied to one ear (the challenged ear) of each of the test mice and the control mice. After 24 hours the thickness of the challenged ear and the thickness of the non-challenged ear of the same animal were measured with an engineer's screw gauge micrometer. The difference in thickness between the challenged ear and the non-challenged ear in each animal is a measure of the response of that animal to oxazolone. A comparison between the response of mice treated with the test compound and mice treated with the control indicates the effectiveness of the test compound as an immunomodulatory agent. The compounds were considered to be active at a particular dose if a 20% or greater reduction in ear swelling, which was statistically significant (p <0.05) according to Dunnett's test, between treated and control groups was obtained in two out of three CH tests, (or, where more than three tests have been carried out, a majority of the tests) at that dose (see for example Int. Arch. Allergy, 38, p246-259 (1970)).
Each of the compounds of formula I illustrated in Table A below was active at 50 mg/kg in two out of three tests at 50 mg/kg unless indicated otherwise (see Notes following the Table). The minimum effective dose (ie the lowest dose of those used at which the compound is active as defined above) for each compound is given in Table A. The Example (Ex) number or numbers listed adjacent to each compound indicates the process or processes illustrating the preparation of that compound in the Examples.

Row | Compound | minimal effective dose
1 | Cc1oc2ccc(Cl)cc2c2nn(-c3ccc(Cl)cc3)c(=O)c1-2 [Example 49, 8-chloro-2-(4-chlorophenyl)-4-methyl-[1]benzopyrano[4,3-c]pyrazol-3(2H)-one] | 50 mg/kg
2 | Cc1oc2ccccc2c2nn(-c3ccc(Cl)c(Cl)c3)c(=O)c1-2 [Example 36, 2-(3,4-dichlorophenyl)-4-methyl[1]-benzopyrano[4,3-c]pyrazol-3(2H)-one] | 0.3 mg/kg
3 | Cc1oc2ccccc2c2nn(-c3ccc(C(F)(F)F)cc3)c(=O)c1-2 [Example 47, 4-methyl-2-(4-trifluoromethylphenyl)-[1]benzopyrano[4,3-c]pyrazol-3(2H)-one] | 1 mg/kg
4 | CCOC(=O)Cc1oc2ccccc2c2nn(-c3ccc(Cl)cc3)c(=O)c1-2 [Example 41, ethyl 2-(4-chlorophenyl)-3-oxo-2,3-dihydro[1]benzopyrano[4,3-c]pyrazole-4-acetate] | 3 mg/kg
5 | Cc1ccc(-n2nc3c4ccccc4oc(C)c-3c2=O)cc1Cl [Example 46, 2-(3-chloro-4-methylphenyl)-4-methyl-[1]benzopyrano[4,3-c]pyrazol-3(2H)-one] | 3 mg/kg
6 | Cc1ccc(-n2nc3c4ccccc4oc(C)c-3c2=O)cc1 [Example 43, 4-methyl-2-(4-methylphenyl)[1]benzo-pyrano[4,3-c]pyrazol-3(2H)-one] | 10 mg/kg
7 | CCOC(=O)Cc1oc2ccccc2c2nn(-c3ccc(F)cc3)c(=O)c1-2 [Example 53, ethyl 2-(4-fluorophenyl)-3-oxo-2,3-dihydro[1]benzopyrano[4,3-c]pyrazole-4-acetate] | 3 mg/kg
8 | COc1ccc(-n2nc3c4ccccc4oc(C)c-3c2=O)cc1 [Example 39, 2-(4-methoxyphenyl)-4-methyl[1]benzo-pyrano[4,3-c]pyrazol-3(2H)-one] | 50 mg/kg
9 | Cc1ccc2oc(C)c3c(=O)n(-c4ccc(Cl)cc4)nc-3c2c1 [Example 50, 2-(4-chlorophenyl)-4,8-dimethyl[1]-benzopyrano[4,3-c]pyrazol-3(2H)-one] | 50 mg/kg
10 | Cc1oc2cc(F)ccc2c2nn(-c3ccc(Cl)cc3)c(=O)c1-2 [Example 48, 2-(4-chlorophenyl)-7-fluoro-4-methyl-[1]benzopyrano[4,3-c]pyrazol-3(2H)-one] | 50 mg/kg
11 | Cc1oc2cc(Cl)ccc2c2nn(-c3ccc(Cl)cc3)c(=O)c1-2 [Example 55, 7-chloro-2-(4-chlorophenyl)-4-methyl-[1]benzopyrano[4,3-c]pyrazol-3(2H)-one] | 50 mg/kg
12 | Cc1oc2ccccc2c2nn(-c3ccc(Br)cc3)c(=O)c1-2 [Example 44, 2-(4-bromophenyl)-4-methyl[1]benzo-pyrano[4,3-c]pyrazol-3(2H)-one] | 1 mg/kg
13 | Cc1oc2ccccc2c2nn(-c3ccc(F)cc3)c(=O)c1-2 [Example 37, 2-(4-fluorophenyl)-4-methyl[1]benzo-pyrano[4,3-c]pyrazol-3(2H)-one] | 1 mg/kg
14 | Cc1oc2ccccc2c2nn(-c3ccc(F)c(Cl)c3)c(=O)c1-2 [Example 45, 2-(3-chloro-4-fluorophenyl)-4-methyl-[1]benzopyrano[4,3-c]pyrazol-3(2H)-one] | 0.3 mg/kg
15 | COc1cccc2oc(C)c3c(=O)n(-c4ccc(Cl)cc4)nc-3c12 [Example 51, 2-(4-chlorophenyl)-9-methoxy-4-methyl-[1]benzopyrano[4,3-c]pyrazol-3(2H)-one] | 50 mg/kg
16 | Cc1oc2ccc(O)cc2c2nn(-c3ccc(Cl)cc3)c(=O)c1-2 [Example 56, 2-(4-chlorophenyl)-8-hydroxy-4-methyl-[1]benzopyrano[4,3-c]pyrazol-3(2H)-one] | 50 mg/kg
17 | Cc1oc2cccc(C)c2c2nn(-c3ccc(Cl)cc3)c(=O)c1-2 [Example 52, 2-(4-chlorophenyl)-4,9-dimethyl[1]-benzopyrano[4,3-c]pyrazol-3(2H)-one] | 50 mg/kg
18 | Cc1oc2ccccc2c2nn(-c3ccccc3)c(=O)c1-2 [Example 42, 4-methyl-2-phenyl[1]benzopyrano-[4,3-c]pyrazol-3(2H)-one] | 50 mg/kg
19 | CCc1oc2ccccc2c2nn(-c3ccc(Cl)cc3)c(=O)c1-2 [Example 40, 2-(4-chlorophenyl)-4-ethyl[1]benzo-pyrano[4,3-c]pyrazol-3(2H)-one] | 50 mg/kg
20 | Cc1oc2ccccc2c2nn(-c3cccc(Cl)c3)c(=O)c1-2 [Example 38, 2-(3-chlorophenyl)-4-methyl[1]benzo-pyrano[4,3-c]pyrazol-3(2H)-one] | 3 mg/kg
21 | Cc1oc2ccc(F)cc2c2nn(-c3ccc(Cl)cc3)c(=O)c1-2 [Example 54, 2-(4-chlorophenyl)-8-fluoro-4-methyl-[1]benzopyrano[4,3-c]pyrazol-3(2H)-one] | 0.1 mg/kg

Source: EP0354693A1, “Therapeutic agents” (The Boots Company PLC, priority 1988, dated 1990)
